Laboratory results as given in patent EP4685152A1, “PEPTIDE BINDING TO LAG-3 AND USE THEREOF” (Kyungpook National University Industry-Academic Cooperation …, priority 2023, dated 2024).

Columns and labels:
[1] = target: T1, LAG-3 (Homo sapiens, UniProt P18627); test: Competitive binding with LAG-3 blocking antibody, immunofluorescence microscopy on LAG-3-transfected cells; assay type: cell-based; set-up: GFP; host or cells: HEK-293T; settings: LAG-3-transfected Hek-293T cells; LAG-3 blocking antibody 10 µg/ml first, then peptide 25 µM; compared to group without antibody
T1 sequence (P18627 23-525): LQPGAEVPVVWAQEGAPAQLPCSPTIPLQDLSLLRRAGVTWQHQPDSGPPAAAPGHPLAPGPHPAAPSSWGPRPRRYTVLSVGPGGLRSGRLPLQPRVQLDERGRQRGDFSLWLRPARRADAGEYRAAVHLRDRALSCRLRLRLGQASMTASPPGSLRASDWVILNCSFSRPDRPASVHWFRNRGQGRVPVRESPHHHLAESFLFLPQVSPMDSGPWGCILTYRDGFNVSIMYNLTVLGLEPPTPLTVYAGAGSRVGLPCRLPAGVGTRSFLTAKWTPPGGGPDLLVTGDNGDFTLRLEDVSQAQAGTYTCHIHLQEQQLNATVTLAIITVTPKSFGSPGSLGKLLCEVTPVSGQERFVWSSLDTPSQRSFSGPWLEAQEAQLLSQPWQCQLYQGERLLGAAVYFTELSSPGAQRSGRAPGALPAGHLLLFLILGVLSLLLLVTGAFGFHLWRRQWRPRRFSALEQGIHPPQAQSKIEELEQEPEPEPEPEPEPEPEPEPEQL
Protocol: (§1) Hek-293T cells (1.25×10^5) were seeded in 4-well chamber slides and transfected with human LAG-3 plasmid, and the next day, the cells were washed twice with phosphate buffer and reacted with 1% BSA at room temperature for 1 hour to reduce nonspecific binding. Afterwards, cells were blocked with human LAG-3 blocking antibody (10 µg/ml) at 4°C for 30 minutes, and then reacted with TAMRA-conjugated peptide at a concentration of 25 µM at 4°C for 1 hour. After fixation, cells were washed, counterstained with DAPI, treated with an anti-fade reagent to preserve fluorescence, and analyzed using a confocal microscope (Nanoscope System).

[2] = target: T1, LAG-3; test: Peptide binding to stimulated Jurkat T cells by flow cytometry; assay type: cell-based; settings: FITC-labeled peptide 10 µM; Jurkat T cells stimulated with PMA, ionomycin, CQ compared to unstimulated control cells
Protocol: For flow cytometry, Jurkat T cells (1×10^6) stimulated with PMA (50 ng/ml), ionomycin (1 µg/ml), and CQ (100 µM) were harvested and suspended in culture medium containing 1% BSA for blocking at room temperature for 1 hour. Afterwards, the cells were further reacted with fluorescein isothiocyanate-labeled LAG-3 binding peptide (10 µM) at 4°C for 1 hour. After washing several times, 300 µl of cell suspension suspended in phosphate buffer was applied to Attune NxT flow cytometry (Thermo Fisher Scientific).
(§2) To determine the degree of binding of the peptide to LAG-3, a peptide labeled with a red fluorescent reagent was synthesized and treated in Hek-293T cells transfected with LAG-3 followed by observation under an immunofluorescence microscope. Non-transfected cells were used as a control group. Meanwhile, Jurkat T cells stimulated with PMA, ionomycin, and CQ to increase expression of LAG-3 were treated with the peptide, and binding was observed using a flow cytometer. Unstimulated Jurakt T cells were used as a control group.

[3] = target: T1, LAG-3; test: Competitive binding with LAG-3 blocking antibody, flow cytometry on stimulated Jurkat T cells; assay type: cell-based; settings: LAG-3 blocking antibody 10 µg/ml first, then peptide 10 µM, compared to untreated control group
Protocol: Similarly, for flow cytometry, Jurkat T cells (1×10^6) stimulated with PMA (50 ng/ml), ionomycin (1 µg/ml), and CQ (100 µM) were harvested and suspended in culture medium containing 1% BSA for 1 hour at room temperature to block nonspecific binding. Afterwards, cells were blocked with human LAG-3 blocking antibody (10 µg/ml) at 4°C for 30 minutes and then reacted with fluorescein isothiocyanate-conjugated peptide at a concentration of 10 µM at 4°C for 1 hour. After washing several times, 300 µl of cell suspension suspended in phosphate buffer was applied to Attune NxT flow cytometry (Thermo Fisher Scientific).

[4] = target: T1, LAG-3; test: Peptide binding to LAG-3-transfected cells by immunofluorescence microscopy; assay type: cell-based; set-up: GFP; host or cells: HEK-293T; settings: red fluorescent (TAMRA) peptide 25 µM; LAG-3-transfected Hek-293T cells compared to non-transfected control cells
Protocol: as §1, with “slides,” for “slides and”, “[…]. Non-transfected cells were used as a control group. The” for “the”, “day,” for “day, the”, “binding of peptides.” for “binding.”, “were” for “were blocked with human LAG-3 blocking antibody (10 µg/ml) at 4°C for 30 minutes, and then”
as §2

[5] = target: T1, LAG-3; test: Phage binding ELISA on LAG-3-transfected or non-transfected cells; assay type: cell-based; set-up: GFP; host or cells: HEK-293T; settings: phage clone 3 among 13 selected phage clones; transfected or non-transfected Hek-293T cells; OD 450 nm
Protocol: Hek-293T cells (2.5×10^4) were seeded in a 96-well plate and transfected with LAG-3 plasmid. Culture was performed for 48 hours. Non-transfected Hek-293T cells were used as a control group. Plates were blocked with 10 mg/ml BSA for 1 hour at room temperature. After washing the wells six times with Tris-buffered saline-Tween 20 (0.1%), 100 µl of phage clones (1×10^9 pfu/well) were added and reacted at 4°C for 1 hour. After washing, horse-radish peroxidase (HRP)-conjugated T7 tail fiber antibody (diluted 1:10,000 in blocking buffer) was added and reacted at room temperature for 1 hour. After washing the plate six more times, a substrate consisting of 3,3',5,5'-tetramethylbenzidine was added and reacted at room temperature for 10-15 minutes. The reaction was finally stopped by adding 100 µl of 2 M H2SO4 (stop solution), and the plates were analyzed at 450 nm with a microplate reader.

[6] = tested on: MC38 mouse colon cancer cells; test: In-vivo antitumor therapy, syngeneic MC38 mouse tumor model; set-up: species or system C57BL/6 mice; settings: compared to control group and phosphate buffer group; 10 mg/kg; peptide intravenously 6 times, antibody intraperitoneally 3 times
Protocol: 6-8-week-old C57BL/6 mice were purchased. Mice were bred and kept under the guidelines of the Institutional Animal Care and Use Committee (IACUC) of Kyungpook National University (2023-0184). Tumors were injected into the lower right flank of mice. For in-vivo antitumor treatment, mice were randomly selected and grouped when tumor size reached approximately 100-150 mm^3. Thereafter, the peptide was injected intravenously three times a week for two weeks at a dose of 10 mg/kg, and similarly the antibody was injected intraperitoneally three times at the same dose. Tumor size was measured using a digital caliper, and tumor volume was calculated using the formula (V = length × width^2 × 0.52) (where length (L) is the longest dimension, and width (W) is the shortest dimension, parallel to the mouse body). All mice were checked for ulcer severity after treatment, treatment was terminated when the tumor size reached approximately 3000 mm^3, and the mice were sacrificed.
To identify the anticancer effect in a syngeneic mouse tumor model, LAG-3 binding peptide was administered alone or in combination with PD-L1 antibody to mice in which tumors were induced using MC38 mouse colon cancer cells (FIG. 9a). […]

[7] = target: T2, recombinant LAG-3 protein (Homo sapiens, UniProt P18627); test: Pull-down with biotin-peptide and streptavidin beads, immunoblotting; recombinant protein; assay type: binding; settings: biotin-labeled peptides, compared to the control group
T2 construct: purchased Acro Biosystems
T2 sequence (P18627 23-450 limits assumed): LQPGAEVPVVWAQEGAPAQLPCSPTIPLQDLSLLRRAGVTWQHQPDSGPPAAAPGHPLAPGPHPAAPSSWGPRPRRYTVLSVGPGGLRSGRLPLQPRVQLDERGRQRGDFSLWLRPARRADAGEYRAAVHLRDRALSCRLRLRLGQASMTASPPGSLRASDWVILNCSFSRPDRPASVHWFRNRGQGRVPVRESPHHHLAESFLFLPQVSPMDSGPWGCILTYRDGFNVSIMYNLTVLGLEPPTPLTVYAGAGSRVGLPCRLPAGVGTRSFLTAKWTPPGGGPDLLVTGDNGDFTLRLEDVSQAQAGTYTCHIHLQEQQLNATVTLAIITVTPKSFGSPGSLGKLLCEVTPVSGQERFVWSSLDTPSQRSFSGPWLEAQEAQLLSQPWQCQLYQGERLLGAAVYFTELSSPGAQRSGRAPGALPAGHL
Protocol: (§3) The binding specificity of the LAG-3 binding peptide was measured by pull-down analysis. After pull-down with LAG-3 binding peptide using human recombinant LAG-3 protein, it was applied to immunoblotting using LAG-3 antibody. In the same manner, cell lysates with LAG-3 overexpressed were […] using human LAG-3 plasmid DNA and then subjected to immunoblotting using LAG-3 antibodies.

[8] = tested on: Jurkat T cells; test: T-cell activation assay (IL-2 ELISA); assay type: cell-based, human; settings: stimulated Jurkat T cells under co-culture of HepG2 cells, HepG2 cell culture medium, or recombinant FGL-1 (10 µg/ml); peptide 50 µM, antibody 10 µg/ml; 24 hours
Protocol: Jurkat T cells (1×10^6) were inoculated into a T25 flask and stimulated for 24 hours using PMA (50 ng/ml), ionomycin (1 µg/ml), and CQ (100 µM). HepG2 cells (5×10^3) were inoculated in a 96-well plate to induce secretion of FGL-1 for 48 hours. To co-culture the two types of cells, stimulated Jurkat T cells (2.5×10^4) were mixed with HepG2 at a ratio of 1:5. Similarly, for indirect co-culture, stimulated Jurkat T cells (2.5×10^4) were mixed with HepG2 cell culture medium. Finally, to observe the direct effect, stimulated Jurkat T cells (2.5×10^4) were treated with recombinant FGL-1 (10 µg/ml) protein. […] Afterwards, culture was carried out for an additional 24 hours for reaction. Control peptides were also used for comparison. After each culture time, the supernatant was harvested, and IL-2 secretion was measured using an ELISA kit for measuring human IL-2.
Investigation was made on whether the interaction between FGL-1 secreted from HepG2 hepatoma cells and LAG-3 of T cells inhibits T cell activity and, if so, whether it is blocked by a LAG-3 binding peptide. For this purpose, in the first experiment, Jurkat T cells were cultured with stimulation for 24 hours using PMA, ionomycin, and CQ. HepG2 cells were cultured in 96-well plates for 48 hours for FGL-1 secretion. […]

[9] = target: T3, cell lysate overexpressing LAG-3 (Homo sapiens, UniProt P18627); test: Pull-down with biotin-peptide and streptavidin beads, immunoblotting; cell lysate; assay type: binding; settings: cell lysate overexpressing LAG-3, biotin-labeled peptides; compared to the control group
T3 construct: GFP; host or cells: HEK-293T
T3 sequence (P18627 23-525): T1 sequence (P18627 23-525)
Protocol: as §3

cell binding by phage binding ELISA [5] | detection of LAG-3 protein after pull-down [7] | detection of LAG-3 proteins after pull-down [9] | SMILES | binding strength of peptide after LAG-3 blocking antibody [1] | binding of peptide to stimulated Jurkat T cells [2] | binding of peptide after LAG-3 blocking antibody [3] | binding of peptide to LAG-3 expressing cells [4] | cancer growth, single administration [6] | IL-2 secretion [8]
 |  |  | CC[C@H](C)[C@@H]1NC(=O)[C@@H](N)CSSC[C@@H](C(=O)O)NC(=O)[C@H](C(C)C)NC(=O)[C@H](C)NC(=O)[C@@H]2CCCN2C(=O)[C@H](CC(=O)O)NC(=O)[C@H](CC(N)=O)NC(=O)[C@H](CCCNC(=N)N)NC1=O [LAG3Pep-1] | reduced | more LAG-3Pep-1 and LAG-3Pep-2 peptides were bound | reduced | bind more strongly |  | 
highest level of binding | more detection of LAG-3 protein | more LAG-3 proteins were detected | CC(C)C[C@H](NC(=O)[C@@H](NC(=O)[C@H](CO)NC(=O)[C@@H](N)CS)C(C)C)C(=O)N[C@@H](CC(N)=O)C(=O)N[C@@H](C)C(=O)N[C@@H](CO)C(=O)NCC(=O)N[C@@H](CS)C(=O)O [LAG3Pep-2] | reduced | more LAG-3Pep-1 and LAG-3Pep-2 peptides were bound | reduced | bind more strongly | partially inhibited | significantly increased
